# Patent US20240398807A1, “COMPOSITIONS AND METHODS OF TREATING KIDNEY DISEASE AND FIBROSIS” (Mitokinin, Inc., priority 2020, published 2024)
# Entries after “also recorded” stand apart in the source; their conditions may differ.
# Assays:
# [1] = system: pS65-Ub; assay: pS65-Ub ELISA of kidney mitochondrial preparations; assay type: in vivo, mice (C57Bl/6); conditions: single i.p. 30 mg/kg cisplatin
# Experimental: Kidneys were removed from -80° C. and minced on an ice block. Minced tissues were transferred to a dounce homogenizer and homogenized with 20× strokes of the 'loose' pestle and 20× strokes of the 'tight' pestle using 1 ml ul of cold mitochondrial isolation buffer (MIB, 50 mM Tris-HCl (pH 7.5), 70 mM sucrose, 210 mM sorbitol, 1 mM EDTA, 1 mM EGTA, 100 mM chloroacetamide, HaltTM Protease and Phosphatase Inhibitor Cocktail, EDTA-free (100×) (PI), 10 μM PR619). Kidney homogenate was transferred to a 1.5 ml Eppendorf tube and were centrifuged at 300×g for 5 min at 4° C. Approximately 800 ul of supernatant was transferred to a new 1.5 ml microcentrifuge tube. The supernatant (cytosol+mitochondria) was transferred to a new tube and centrifuged at 10,000 g for 20 min at 4° C. to pellet the mitochondrial fraction. After removing residual supernatant, mitochondria were resuspended in lysis buffer (100 mM Bicine pH 8.0, 0.27M Sucrose, 1 mM EDTA, 1 mM EGTA, 5 mM Na4P2O7, 100 mM Tris pH 7.5, 1% Triton X-100), containing benzonase (1:1000), HALT protease/phosphatase inhibitors (1:100), and PR-619 de-ubiquitinase inhibitor (1:1000). […] For peroxidase reaction, 50 ul of TMB reagent (Pierce #34029) was added to the wells after washing and wells were monitored closely for reaction development. […] Absorbance was measured at 450 nm using […] SpectraMax). […]
# [2] = system: PINK1; assay: Western blot for PINK1 in kidney mitochondrial preparations; assay type: in vivo, mice (C57Bl/6); conditions: C57Bl/6; single i.p. 30 mg/kg cisplatin; FIG. 3B
# Experimental: Kidneys were removed from -80° C. and minced on an ice block. Minced tissues were transferred to a dounce homogenizer and homogenized with 20× strokes of the 'loose' pestle and 20× strokes of the 'tight' pestle using 1 ml ul of cold mitochondrial isolation buffer (MIB, 50 mM Tris-HCl (pH 7.5), 70 mM sucrose, 210 mM sorbitol, 1 mM EDTA, 1 mM EGTA, 100 mM chloroacetamide, HaltTM Protease and Phosphatase Inhibitor Cocktail, EDTA-free (100×) (PI), 10 μM PR619). Kidney homogenate was transferred to a 1.5 ml Eppendorf tube and were centrifuged at 300×g for 5 min at 4° C. Approximately 800 ul of supernatant was transferred to a new 1.5 ml microcentrifuge tube. The supernatant (cytosol+mitochondria) was transferred to a new tube and centrifuged at 10,000 g for 20 min at 4° C. to pellet the mitochondrial fraction. […] The total protein concentration of kidney mitopreps was measured with the Thermo Scientific Pierce BCA Protein Assay Kit (Thermo Scientific), according to its product manual. […] For each lane of a 26 well gel (4-20% CriterionTM Tris-HCl Protein Gel, Bio-Rad Laboratories), 10 μg per sample was loaded and analyzed by Western Blotting. Indicated bands were quantified using ImageStudio Lite and normalized to beta actin band intensity. […]
# [3] = system: mitochondrial DNA; assay: kidney mtDNA/nucDNA ratio by qPCR; assay type: in vivo
# Experimental: A small piece of frozen kidney tissue (˜12 mg) was homogenized and DNA extracted using the Qiagen QIAamp DNA mini kit. mtDNA/nucDNA ratio was determined using a qPCR protocol from the Aurwex lab (Quiros et al, 2017), using the following primers: 16S rRNA 5′-[…]-3′(SEQ ID NO:11) and 5′-[…]-3′ (SEQ ID NO:12); ND1 5′-[…]-3′ (SEQ ID NO: 13) and: 5′-[…]-3 (SEQ ID NO:14); HK2 5′-[…]-3′ (SEQ ID NO:15) and 5′-[…]-3′ (SEQ ID NO:16).
# Referring to FIG. 4, mice (C57Bl/6) were challenged with a single intraperitoneal dose of 10 mg/kg cisplatin. Tissue lysates were examined for mitochondrial gene ND1 and nuclear gene beta actin by quantitative PCR.
# Referring to FIG. 12, mice (C57Bl/6) were challenged with a single intraperitoneal dose of 10 mg/kg cisplatin and dosed by oral gavage, once per day (QD) for seven days with 35985.
# [4] = body weight loss in cisplatin-challenged mice; assay type: in vivo, mice (C57Bl/6)
# Experimental: Referring to FIG. 9, mice (C57Bl/6) were challenged with a single intraperitoneal dose of 10 mg/kg cisplatin or saline (not shown) and dosed by oral gavage once per day (QD) with 35985.
# [5] = system: HeLa cells expressing a mitophagy indicator (mtKeima) protein; assay: mitophagy in HeLa cells expressing mtKeima, FACS; assay type: cell-based; conditions: 1 mM of FCCP and Oligomycin then specified dose of compound, FIG. 1
# Experimental: Briefly, HeLa cells expressing a mitophagy indicator (mtKeima) protein were treated with […] of FCCP and Oligomycin followed by the specified dose of compound, then analyzed by FACS to quantify the percentage of cells undergoing mitophagy.
# [6] = system: GDF15; assay: serum GDF15 ELISA in cisplatin-challenged mice; assay type: in vivo, mice (C57Bl/6); conditions: single i.p. 10 mg/kg cisplatin; oral gavage QD 20 mg/kg or 50 mg/kg; after 7 days; FIG. 13
# Experimental: For tissue harvest, mice were anesthetized using isofluorane. Cardiac puncture was performed to withdraw blood for serum collection. Blood was deposited into serum separator tubes and left undisturbed for 30 min to 1 hr at room temperature to allow clotting prior to serum separation by centrifugation for 2 min (10,000 g, room temperature). Collected serum was transferred to Eppendorf tubes and frozen on dry ice. After cervical dislocation, left and right kidneys were extracted and frozen until analysis.
# Referring to FIG. 13, mice (C57Bl/6) were challenged with a single intraperitoneal dose of 10 mg/kg cisplatin or saline and dosed by oral gavage once per day (QD) with 20 mg/kg or 50 mg/kg 35985.
# [7] = system: KIM-1 (kidney-injury marker 1); assay: urine KIM-1 ELISA in cisplatin-challenged mice; assay type: in vivo, mice (C57Bl/6); conditions: for KIM-1 (urine biomarker for kidney injury): single i.p. 10 mg/kg cisplatin, day 3 post-challenge
# Experimental: Urine was collected from scruffed mice (serial collection) or directly from bladder using insulin syringe during harvest (terminal collection). KIM-1 was measured in mouse urine using R&D System's Mouse TIM-1/KIM-1/HAVCR DuoSet ELISA following manufacturer's published protocol.
# Referring to FIG. 10, mice (C57Bl/6) were challenged with a single intraperitoneal dose of 10 mg/kg cisplatin or saline (not shown) and dosed by oral gavage once per day (QD) with 35985.
# [8] = system: HeLa cells expressing a YFP-tagged Parkin; assay: Parkin recruitment to mitochondria, longitudinal imaging; assay type: cell-based; conditions: 1 mM of FCCP and Oligomycin then specified dose, percentage of cells with Parkin recruited at 60 minutes, FIG. 2
# Experimental: HeLa cells expressing a YFP-tagged Parkin were treated with […] of FCCP and Oligomycin followed by the specified dose of compound, then analyzed by longitudinal imaging. Percentage of cells with Parkin recruited to mitochondria at 60 minutes is shown.
compound,measurement,setting,value
"N.N.[Cl][Pt][Cl] [cisplatin, reference compound]",pS65-Ub in kidney mitochondria,"[1]; C57Bl/6, FIG. 3A",pS65-Ub increase
same,kidney mitochondria pS65-Ub levels,"[1]; PINK1 KO mice, different times, FIG. 6, 30 mg/kg",does not induce a change in pS65 Ubiquitin; also recorded: remains unchanged
same,PINK1 protein in kidney mitochondria,[2],induction of PINK1
same,mitochondrial DNA (mtDNA/nucDNA ratio; ND1 vs beta actin),"[3]; C57Bl/6, single i.p. 10 mg/kg cisplatin, FIG. 4",induces reduction in mtDNA/nucDNA ratio; also recorded: significant reduction in mitochondrial DNA
FC(F)(F)c1cc2c(N[C@@H]3CCCc4ccccc43)ncnc2[nH]1 [compound 35985],cisplatin-mediated weight-loss,"[4]; single i.p. 10 mg/kg cisplatin, 35985 oral gavage QD, FIG. 9, 10 mg/kg",ameliorates cisplatin-induced body-weight loss; also recorded: dose-dependent rescue of cisplatin-mediated weight-loss
same,percentage of cells undergoing mitophagy,[5],induce mitophagy in a dose dependent manner; also recorded: dose responsive increase in the percentage of cells undergoing mitophagy
same,cisplatin-mediated mitochondrial DNA loss,"[3]; single i.p. 10 mg/kg cisplatin, oral gavage QD seven days, at 10 mg/kg and above, FIG. 12",ameliorates mtDNA loss upon cisplatin challenge; also recorded: rescued cisplatin-mediated mitochondrial DNA loss
same,mitochondrial-stress serum biomarker GDF15 (ELISA),[6],reduces serum GDF15 levels; also recorded: reduced mitochondrial-stress serum biomarker GDF15
same,KIM-1 (urine biomarker for kidney injury),"[7]; 35985 oral gavage QD, FIG. 10",reduces kidney damage in cisplatin challenged mice; also recorded: dose-dependent rescue of KIM-1
same,rate of Parkin recruitment to mitochondria,[8],accelerate recruitment of Parkin to mitochondria; also recorded: dose responsive increase in the rate of Parkin recruitment to mitochondria
c1ccc2c(c1)OC[C@@H](N1CCOCC1)[C@@H]2Nc1ncnc2[nH]c(C3CC3)cc12 [compound 40180],percentage of cells undergoing mitophagy,[5],induce mitophagy in a dose dependent manner; also recorded: dose responsive increase in the percentage of cells undergoing mitophagy
same,KIM-1 (urine biomarker for kidney injury),"[7]; 40180 oral gavage QD, FIG. 14",reduces KIM-1; also recorded: dose-dependent rescue of KIM-1
same,rate of Parkin recruitment to mitochondria,[8],accelerate recruitment of Parkin to mitochondria; also recorded: dose responsive increase in the rate of Parkin recruitment to mitochondria
FC(F)(F)c1cc2c(N[C@H]3c4ccccc4CC[C@@H]3C3C[C@@H]4COC[C@H]4C3)ncnc2[nH]1 [compound 40270],"kidney dysfunction, KIM-1 levels","[7]; single dose cisplatin 10 mg/kg i.p., 53 mg/kg p.o., b.i.d., FIG. 17",reduces KIM-1; also recorded: Dysfunction was ameliorated
C[C@@H]1CN([C@@H]2COc3cc(F)ccc3[C@H]2Nc2ncnc3[nH]c(C(F)(F)F)cc23)CCO1 [compound 41088],cisplatin-induced weight loss,"[4]; single dose cisplatin 10 mg/kg i.p., p.o., q.d. at 1.56, 3.13, 6.25 and 12.5 mg/kg, FIG. 18",reduces weight loss; also recorded: Weight loss was ameliorated
